Test results: ChEMBL document CHEMBL4513161, “CO-ADD screening of MMV (CH) - Pandemic Response Box” (2021)
Converted amounts (≈) assume the structure as drawn. Where a name gives a salt, the structure may show the parent alone.

Legend:
Escherichia coli = assay: microbe, parasite or virus in culture; details: ATCC 25922, 18 h, ASSAY_TEST Inhibition of Bacterial Growth, detection method Absorption (OD600), MEDIA CAMHB, plate type 384well, NBS, CORNING #3640
Description: Antibacterial activity against Escherichia coli ATCC 25922 (CO-ADD:GN_001); MIC in CAMBH media using NBS plates, by OD(600)

Pseudomonas aeruginosa [1] = assay: microbe, parasite or virus in culture; details: ATCC 27853, 18 h, ASSAY_TEST Inhibition of Bacterial Growth, detection method Absorption (OD600), MEDIA CAMHB, plate type 384well, NBS, CORNING #3640
Description: Antibacterial activity against Pseudomonas aeruginosa ATCC 27853 (CO-ADD:GN_042); MIC in CAMBH media using NBS plates, by OD(600)

Pseudomonas aeruginosa [2] = assay: Antibacterial activity against Pseudomonas aeruginosa PAO397 [PAO1 d(mexAB-oprM) d(mexCD-oprJ) d(mexEF-oprN) d(mexJKL) d(mexXY) d(opmH)] (CO-ADD:GN_211); MIC in CAMBH media using NBS plates, by OD(600); format: functional; details: ASSAY_TEST Inhibition of Bacterial Growth, detection method Absorption (OD600), MEDIA CAMHB, plate type 384well, CORNING #3640, time 18 hr
HEK293 = assay: cells; format: functional, Homo sapiens, ATCC CRL1573; details: Homo sapiens, ATCC CRL1573, HEK293; ASSAY_TEST Inhibition of Cell Viability; detection method Resazurin; Fluorescence (ex560/em590); MEDIA DMEM with 10% FBS; plate type 384well; TC; CORNING #3712; time 18 hr; read-out: CC50
Candida albicans = assay: microbe, parasite or virus in culture; details: ATCC 90028, ASSAY_TEST Inhibition of Fungal Growth, detection method Absorption (OD530), plate type 384well, NBS, CORNING #3640
Description: Antifungal activity against Candida albicans ATCC 90028 (CO-ADD:FG_001); MIC in YNB media using NBS plates, by OD630

Klebsiella pneumoniae = assay: microbe, parasite or virus in culture; details: ATCC 700603, 18 h, ASSAY_TEST Inhibition of Bacterial Growth, detection method Absorption (OD600), MEDIA CAMHB, plate type 384well, NBS, CORNING #3640
Description: Antibacterial activity against Klebsiella pneumoniae MDR ATCC 70063 (CO-ADD:GN_003); MIC in CAMBH media using NBS plates, by OD(600)

Acinetobacter baumannii = assay: microbe, parasite or virus in culture; details: ATCC 19606, 18 h, ASSAY_TEST Inhibition of Bacterial Growth, detection method Absorption (OD600), MEDIA CAMHB, plate type 384well, NBS, CORNING #3640
Description: Antibacterial activity against Acinetobacter baumannii ATCC 19606 (CO-ADD:GN_034); MIC in CAMBH media using NBS plates, by OD600

Staphylococcus aureus = assay: microbe, parasite or virus in culture; details: ATCC 43300, 18 h, ASSAY_TEST Inhibition of Bacterial Growth, detection method Absorption (OD600), MEDIA CAMHB, plate type 384well, NBS, CORNING #3640
Description: Antibacterial activity against Staphylococcus aureus MRSA ATCC 43300 (CO-ADD:GP_020); MIC in CAMBH media, using NBS plates, by OD(600)

Description for Cryptococcus neoformans: Antifungal activity against Cryptococcus neoformans H99 ATCC 208821 (CO-ADD:FG_002); MIC in YNB media using NBS plates, by Resazurin OD(600-570)

SMILES | MIC (Escherichia coli) [µM] | MIC (Pseudomonas aeruginosa [1]) [µM] | MIC (Pseudomonas aeruginosa [2]) [µM] | MIC (Cryptococcus neoformans) [µM] | CC50 (HEK293) [µM] | MIC (Candida albicans) [µM] | MIC (Klebsiella pneumoniae) [µM] | MIC (Acinetobacter baumannii) [µM] | MIC (Staphylococcus aureus) [µM]
O=C(O)COc1cccc2c1CC[C@](O)(COC(=O)N(c1ccccc1)c1ccccc1)C2 | > 20 | > 20 | > 20 | > 20 | > 20 | > 20 | > 20 | > 20 | > 20
CCCCCCCCC(CP(=O)(O)C(C)N)C(=O)O (stereo unspecified) | > 20 | > 20 | > 20 | > 20 | > 20 | > 20 | > 20 | > 20 | > 20
O=C(NCc1ncc(C(F)(F)F)cc1Cl)c1c(Cl)cccc1Cl | > 20 | > 20 | > 20 | > 20 | > 20 | > 20 | > 20 | > 20 | > 20
O=C(O)CCNC(=O)c1ccccc1 [BETAMIPRON] | > 20 | > 20 | > 20 | > 20 | > 20 | > 20 | > 20 | > 20 | > 20
CCn1cc(C(=O)O)c(=O)c2cc(F)c(N3CCNC(C)C3)c(F)c21 (stereo unspecified) [LOMEFLOXACIN HYDROCHLORIDE] | 0.625 | > 20 | 0.312 | > 20 | > 20 | > 20 | 20 | 20 | 10
COC(=O)Nc1nc2ccccc2[nH]1 [CARBENDAZIM] | > 20 | > 20 | > 20 | > 20 | 15.5 | > 20 | > 20 | > 20 | > 20
O=C(O)c1sccc1S(=O)(=O)n1ccc2cc(Br)ccc21 | > 20 | > 20 | > 20 | > 20 | > 20 | > 20 | > 20 | > 20 | > 20
O=C(Nc1ccccc1)N(Cc1cc(Br)ccc1O)c1ccc(F)cc1 | > 20 | > 20 | > 20 | > 20 | > 20 | > 20 | > 20 | > 20 | > 20
Cc1cc(C)n(O)c(=O)c1 [METIPIROX] | > 20 | > 20 | > 20 | 20 (≈ 2.78 µg/mL) | > 20 | > 20 | > 20 | > 20 | > 20
CC(C)Cn1c(=O)n(C)c(=O)c2c(-c3cncn3C)n(Cc3cccc4ccccc34)nc21 | > 20 | > 20 | > 20 | > 20 | > 20 | > 20 | > 20 | > 20 | > 20
O=C(NC(=O)N1CCCc2ccccc21)c1ccc(Cl)cc1Cl | > 20 | > 20 | > 20 | > 20 | > 20 | > 20 | > 20 | > 20 | > 20
COc1ccc2nc(-c3ccccc3)cc(O)c2c1 | > 20 | > 20 | > 20 | > 20 | 2.85 | > 20 | > 20 | > 20 | > 20
O=[N+]([O-])c1cn(Cc2nc(O)nc(O)c2Br)cn1 | > 20 | > 20 | > 20 | > 20 | > 20 | > 20 | > 20 | > 20 | > 20
Nc1nc(F)nc2c1ncn2[C@H]1O[C@@H](CO)[C@H](O)[C@@H]1O | > 20 | > 20 | > 20 | > 20 | 0.535 | > 20 | > 20 | > 20 | > 20
O=C(Cc1ccccc1F)Nc1nc2ccccc2[nH]1 | > 20 | > 20 | > 20 | > 20 | > 20 | > 20 | > 20 | > 20 | > 20
COc1ccc(COc2cc3oc(=O)c4cc(C(C)O)ccc4c3cc2OC)cc1 (stereo unspecified) [PALOMID-529] | > 20 | > 20 | > 20 | > 20 | > 20 | > 20 | > 20 | > 20 | > 20
O=C(O)c1ccc(-c2ccc(O[C@H]3O[C@H](CO)[C@@H](O)[C@H](O)[C@@H]3O)cc2)cc1 | > 20 | > 20 | > 20 | > 20 | > 20 | > 20 | > 20 | > 20 | > 20
CN(C)c1[nH]c(=O)ncc1F | > 20 | > 20 | > 20 | > 20 | > 20 | > 20 | > 20 | > 20 | > 20
C=CCc1cc(Cc2cnc(N)nc2N)cc(OC)c1O | 2.5 (≈ 0.716 µg/mL) | > 20 | 10 (≈ 2.86 µg/mL) | > 20 | > 20 | > 20 | 10 (≈ 2.86 µg/mL) | > 20 | 2.5 (≈ 0.716 µg/mL)
NC(=O)C(c1ccccc1)(c1ccccc1)[C@H]1CCCN(CCc2ccc3c(c2)CCO3)C1 | > 20 | > 20 | 20 (≈ 8.81 µg/mL) | > 20 | > 20 | > 20 | > 20 | > 20 | > 20
CC(C)(C)c1cc(CCC(=O)N2CCC2)cc(C(C)(C)C)c1O | > 20 | > 20 | > 20 | > 20 | > 20 | > 20 | > 20 | > 20 | > 20
Cc1ccc(S(=O)(=O)Nc2cccc3cccnc23)cc1 | > 20 | > 20 | > 20 | > 20 | 4.05 | > 20 | > 20 | > 20 | > 20
NC1(C(=O)O)CCP(=O)(O)CC1 (stereo unspecified) | > 20 | > 20 | > 20 | > 20 | > 20 | > 20 | > 20 | > 20 | > 20
CC[C@@H](CO)NCCN[C@@H](CC)CO [ETHAMBUTOL] | > 20 | > 20 | > 20 | > 20 | > 20 | > 20 | > 20 | > 20 | > 20
Nc1nc2c(ncn2/C=C2/CC2(CO)CO)c(=O)[nH]1 [FILOCICLOVIR] | > 20 | > 20 | > 20 | > 20 | > 20 | > 20 | > 20 | > 20 | > 20
CCc1oc2ccccc2c1C(=O)c1ccc(O)cc1 [BENZARONE] | > 20 | > 20 | > 20 | > 20 | > 20 | > 20 | > 20 | > 20 | > 20
Nc1cc(N)c2nc(-c3ccccc3)c(Nc3ccc(F)cc3)nc2c1 | > 20 | > 20 | > 20 | > 20 | 1.91 | > 20 | > 20 | > 20 | > 20
O=C(CC1Sc2ncnn2C1=O)Nc1ccc(Br)cc1 (stereo unspecified) | > 20 | > 20 | > 20 | 10 (≈ 3.53 µg/mL) | > 20 | 20 (≈ 7.06 µg/mL) | > 20 | > 20 | > 20
CS(=O)(=O)c1ccc(Oc2ccc(Cl)cc2)cc1 | > 20 | > 20 | > 20 | > 20 | > 20 | > 20 | > 20 | > 20 | > 20
